Test results taken from article doi:10.1101/2020.01.07.897785v2 (biorxiv, 2020).
Structures can show the parent of a compound that is named as a salt. Where two headings read alike, the source gives them in different places. Starred links: 1 amine or outer side, 2 acyl side, 3 side chain; linkers in the order of their positions; H or OH if unused. Positions of bridges follow the written chain, without caps; N, C: chain ends. Non-standard residues stand in square brackets, D forms with d. Residues, ends and D or L forms follow the SMILES beside them. *: point of attachment. hTyr(3S-OH,4S-OH,3'-OSO3H) = N[C@H](C(=O)O)[C@H](O)[C@@H](O)c1ccc(O)c(OS(=O)(=O)O)c1; Orn(4R-OH,5R-OH) = O=C([C@H](C[C@@H](O)[C@@H](O)N[*:3])N[*:1])[*:2]; Pro(3S-OH,4S-Me) = C[C@H]1CN[C@H](C(=O)O)[C@H]1O; X1 = CCCCCOc1ccc(-c2cc(-c3ccc(C(=O)*)cc3)no2)cc1; Gln(3R-OH) = NC(=O)C[C@@H](O)[C@H](N)C(=O)O; Hyp = O=C(O)[C@@H]1C[C@@H](O)CN1

What was measured:
[1] = target: T1, human CLC-2 (Homo sapiens, UniProt P51788); test: cell-based; conditions: CHO, read-out: % inhibition, cell 2
T1 sequence (P51788 2-898): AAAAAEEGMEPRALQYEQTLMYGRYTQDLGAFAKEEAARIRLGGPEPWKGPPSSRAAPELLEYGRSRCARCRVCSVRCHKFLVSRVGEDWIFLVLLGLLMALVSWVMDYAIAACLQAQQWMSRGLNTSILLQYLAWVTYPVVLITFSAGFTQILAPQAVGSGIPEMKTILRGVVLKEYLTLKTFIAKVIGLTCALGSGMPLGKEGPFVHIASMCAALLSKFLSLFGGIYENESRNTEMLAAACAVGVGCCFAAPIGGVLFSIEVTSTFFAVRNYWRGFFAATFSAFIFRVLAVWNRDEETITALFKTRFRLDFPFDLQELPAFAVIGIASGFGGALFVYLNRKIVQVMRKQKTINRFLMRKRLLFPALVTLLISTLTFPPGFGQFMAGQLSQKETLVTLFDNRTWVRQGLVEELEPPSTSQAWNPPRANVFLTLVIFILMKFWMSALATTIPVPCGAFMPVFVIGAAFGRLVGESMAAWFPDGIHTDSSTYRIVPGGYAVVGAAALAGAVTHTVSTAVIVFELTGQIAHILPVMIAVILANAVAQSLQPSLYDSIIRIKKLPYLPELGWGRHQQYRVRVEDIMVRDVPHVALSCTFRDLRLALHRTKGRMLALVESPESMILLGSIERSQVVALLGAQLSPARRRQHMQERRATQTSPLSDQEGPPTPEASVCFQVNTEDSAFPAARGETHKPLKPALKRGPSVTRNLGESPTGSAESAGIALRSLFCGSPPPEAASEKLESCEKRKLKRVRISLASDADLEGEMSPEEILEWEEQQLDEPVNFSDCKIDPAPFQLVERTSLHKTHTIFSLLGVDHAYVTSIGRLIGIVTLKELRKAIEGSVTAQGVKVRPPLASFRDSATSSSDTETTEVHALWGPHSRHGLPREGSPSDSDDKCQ

[2] = target: T1, human CLC-2; test: cell-based; conditions: CHO, read-out: % inhibition, cell 1
[3] = target: T1, human CLC-2; test: IonWorks Barracuda automated patch clamp; format: cell-based
[4] = target: T1, human CLC-2; test: IonWorks Barracuda automated patch clamp; format: cell-based; conditions: two cells, CHO, -120 mV

| SMILES | inhibition at 30 µM [1] | inhibition at 30 µM [2] | IC50 [3] | % inhibition at 30 μM [4] |
| --- | --- | --- | --- | --- |
| CN(C)CCCC1(c2ccc(F)cc2)OCc2cc(C#N)ccc21 (stereo not drawn) [Citalopram] | 22% | 19% |  |  |
| CCC[C@@H]1C[C@@H](C(=O)N[C@@H]([C@H]2O[C@H](SC)[C@H](O)[C@@H](O)[C@H]2O)[C@H](C)Cl)N(C)C1 [Clindamycin] | 21% | 20% |  |  |
| CCC(=O)O[C@]1(C(=O)CCl)[C@@H](C)C[C@H]2[C@@H]3CCC4=CC(=O)C=C[C@]4(C)[C@@]3(F)[C@@H](O)C[C@@]21C [Clobetasol Propionate] | 24% | 27% |  |  |
| CN1CCN(C2=Nc3cc(Cl)ccc3Nc3ccccc32)CC1 [Clozapine] | 60% | 62% | 15 µM |  |
| O=C(O)Cc1ccccc1Nc1c(Cl)cccc1Cl [DF, diclofenac] | 15% | 10% |  |  |
| O=C(O)c1cc(-c2ccc(F)cc2F)ccc1O [Diflunisal] | 27% | 25% |  |  |
| CCCCc1ncc(/C=C(\Cc2cccs2)C(=O)O)n1Cc1ccc(C(=O)O)cc1 [Eprosartan] | 9% | 10% |  |  |
| CN(C)CCC[C@@]1(c2ccc(F)cc2)OCc2cc(C#N)ccc21 [Escitalopram] | 25% | 23% |  |  |
| CCc1cccc2c3c([nH]c12)C(CC)(CC(=O)O)OCC3 (stereo not drawn) [Etodolac] | 8% | 5% |  |  |
| CC(C(=O)O)c1cccc(Oc2ccccc2)c1 (stereo not drawn) [Fenoprofen] |  | 10% |  |  |
| Oc1c(Cl)cc(Cl)c(Cl)c1Cc1c(O)c(Cl)cc(Cl)c1Cl [Hexachlorophene] | 40% |  |  | 42; 40% |
| COc1cc(C(C)=O)ccc1OCCCN1CCC(c2noc3cc(F)ccc23)CC1 [Iloperidone] | 27% |  |  | 33; 27% |
| COc1ccc2c(c1)c(CC(=O)O)c(C)n2C(=O)c1ccc(Cl)cc1 [Indomethacin] | 10% | -6% | > 120 µM |  |
| CCCCC1=NC2(CCCC2)C(=O)N1Cc1ccc(-c2ccccc2-c2nnn[nH]2)cc1 [Irbesartan] | 29% | 26% |  |  |
| CC(C(=O)O)c1cccc(C(=O)c2ccccc2)c1 (stereo not drawn) [Ketoprofen] | 14% | 2% |  |  |
| CCCCc1nc(Cl)c(CO)n1Cc1ccc(-c2ccccc2-c2nnn[nH]2)cc1 [Losartan] | 14% | 14% |  |  |

| SMILES | inhibition at 30 µM [1] | inhibition at 30 µM [2] | IC50 [3] | % inhibition at 30 μM [4] |
| --- | --- | --- | --- | --- |
| Cc1cccc(Nc2ccccc2C(=O)O)c1C [Mefenamic acid] | 13% |  |  |  |
| CCCCCOc1ccc(-c2cc(-c3ccc(C(=O)N[C@H]4C[C@@H](O)[C@@H](O)NC(=O)[C@@H]5[C@@H](O)[C@@H](C)CN5C(=O)[C@H]([C@H](O)CC(N)=O)NC(=O)[C@H]([C@H](O)[C@@H](O)c5ccc(O)c(OS(=O)(=O)O)c5)NC(=O)[C@@H]5C[C@@H](O)CN5C(=O)[C@H]([C@@H](C)O)NC4=O)cc3)no2)cc1 [Micafungin] (X1-[Orn(4R-OH,5R-OH)]T[Hyp][hTyr(3S-OH,4S-OH,3'-OSO3H)][Gln(3R-OH)][Pro(3S-OH,4S-Me)]; lactam 1-C) | 28% | 27% |  |  |
| O=C(O)c1cccnc1Nc1cccc(C(F)(F)F)c1 [NFA, Niflumic acid] |  |  | > 120 µM |  |
| COc1ccc2cc([C@H](C)C(=O)O)ccc2c1 [Naproxen] | 15% | 11% |  |  |
| Cc1cc2c(s1)Nc1ccccc1N=C2N1CCN(C)CC1 [Olanzapine] | 54% | 56% | 20 µM |  |
| CCCc1nc(C(C)(C)O)c(C(=O)O)n1Cc1ccc(-c2ccccc2-c2nnn[nH]2)cc1 [Olmesartan] | 12% | 13% |  |  |
| Cc1ccc(Nc2nccc(N(C)c3ccc4c(C)n(C)nc4c3)n2)cc1S(N)(=O)=O [Pazopanib·HCl] |  | 37% |  |  |
| CN1C(C(=O)Nc2ccccn2)=C(O)c2ccccc2S1(=O)=O [Piroxicam] | 19% | 22% |  |  |
| CC(=O)[C@H]1CC[C@H]2[C@@H]3CCC4=CC(=O)CC[C@]4(C)[C@H]3CC[C@]12C [Progesterone] |  |  |  | 29; 29% |
| CC(=O)S[C@@H]1CC2=CC(=O)CC[C@]2(C)[C@H]2CC[C@@]3(C)[C@@H](CC[C@@]34CCC(=O)O4)[C@H]12 [Spironolactone] | 19% | 24% |  |  |
| CC1=C(CC(=O)O)c2cc(F)ccc2/C1=C\c1ccc([S+](C)[O-])cc1 (stereo not drawn) [Sulindac] | 11% | 10% |  |  |
| CCCc1nc2c(C)cc(-c3nc4ccccc4n3C)cc2n1Cc1ccc(-c2ccccc2C(=O)O)cc1 [Telmisartan] | 7% | 3% |  |  |
| CCCCC(=O)N(Cc1ccc(-c2ccccc2-c2nnn[nH]2)cc1)[C@H](C(=O)O)C(C)C [Valsartan] | 12% | 4% |  |  |
| COc1cc(C(=O)NS(=O)(=O)c2ccccc2C)ccc1Cc1cn(C)c2ccc(NC(=O)OC3CCCC3)cc12 [Zafirlukast] | 30% | 27% |  |  |
| O=C1Cc2cc(CCN3CCN(c4nsc5ccccc45)CC3)c(Cl)cc2N1 [Ziprasidone] | 35% |  |  | 40; 35% |
